Our source for the EC50, CC50 and ED50 values is ChEMBL document CHEMBL3817808, “Enlarging the chemical space of anti-leishmanials: a structureactivity relationship study of peptoids against Leishmania mexicana, a causative agent of cutaneous leishmaniasis” (Medchemcomm, 2016).

Data set [1] relates to Leishmania mexicana. The data set is described as follows: Antileishmanial activity against Leishmania mexicana MNYC/BZ/62/M379 promastigotes assessed as parasite viability measured after 1 hr by alamarBlue staining based fluorescence analysis. In kind it is functional. The conditions noted are these: MNYC/BZ/62/M379, 1 h, read-out: ED50 (the source's name). (In general: The colour change of resazurin is a common sign of viable cells or microbes.)

A short description of data set [2]: Cytotoxicity against mouse RAW264.7 cells measured after 24 hrs by alamarBlue staining based fluorescence analysis. Type of data set: cell-based. The conditions noted are these: read-out: ED50.
For data set [3], the system named is Leishmania mexicana. In words: Antileishmanial activity against Leishmania mexicana MNYC/BZ/62/M379 amastigotes infected in mouse RAW264.7 cells assessed as parasite viability measured after 24 hrs by alamarBlue staining based fluorescence analysis. In kind it is functional.
Data set [4] has as its system Leishmania mexicana. The data set is described as follows: Antileishmanial activity against axenic amastigote form of Leishmania mexicana MNYC/BZ/62/M379 assessed as parasite viability measured after 1 hr by alamarBlue staining based fluorescence analysis. In kind it is functional. To be noted: MNYC/BZ/62/M379, 1 h, read-out: ED50 (the source's name).

Non-standard residues stand in square brackets, D forms with d. Residues, ends and D or L forms follow the SMILES beside them. Gly(Nα-4-Cl-benzyl) = O=C(O)CNCc1ccc(Cl)cc1; N(4-F-Bzl)Gly = O=C(O)CNCc1ccc(F)cc1; Gly(N-(CH2)6NH2) = NCCCCCCNCC(=O)O; Gly(N-2-aminoethyl) = NCCNCC(=O)O; N(isopentyl)Gly = CC(C)CCNCC(=O)O; Nspe = C[C@H](NCC(=O)O)c1ccccc1; Nphe = O=C(O)CNCc1ccccc1; Nleu = CC(C)CNCC(=O)O; NPrGly = CCCNCC(=O)O; Nlys = NCCCCNCC(=O)O

Turning to `CC(c1ccccc1)N(CC(=O)N(CCCCN)CC(=O)N(CC(=O)N(CC(=O)N(CCCCN)CC(=O)N(CC(=O)N(CC(N)=O)[C@@H](C)c1ccccc1)[C@@H](C)c1ccccc1)Cc1ccc(F)cc1)Cc1ccc(F)cc1)C(=O)CN(C(=O)CN(CCCCN)C(=O)CN(Cc1ccc(F)cc1)C(=O)CN(Cc1ccc(F)cc1)C(=O)CNCCCCN)[C@@H](C)c1ccccc1` (single isomer, unassigned), the EC50 in the data set with Leishmania mexicana [1] amounted to 6 µM; in the data set with Leishmania mexicana [4] it was 21 µM. The CC50 at 24 h in data set [2] was 5 µM. The ED50 in the data set on Leishmania mexicana [3] was greater than 5 µM.
As for `C[C@H](c1ccccc1)N(CC(=O)N(CCN)CC(=O)N(CC(=O)N(CC(=O)N(CCN)CC(=O)N(CC(=O)N(CC(=O)N(CCN)CC(=O)N(CC(=O)N(CC(N)=O)[C@@H](C)c1ccccc1)[C@@H](C)c1ccccc1)[C@H](C)c1ccccc1)[C@@H](C)c1ccccc1)[C@H](C)c1ccccc1)[C@@H](C)c1ccccc1)C(=O)CN(C(=O)CNCCN)[C@H](C)c1ccccc1` (stereo in doubt), the figures for the EC50 with Leishmania mexicana [1] and with Leishmania mexicana [4] were 7 µM and 17 µM, respectively. Moreover, in data set [2], the CC50 at 24 h is 3 µM. In addition, the ED50 in the data set with Leishmania mexicana [3] is greater than 5 µM.
Consider `COc1ccc(CN(CC(N)=O)C(=O)CN(Cc2ccc(OC)cc2)C(=O)CN(CCCCN)C(=O)CN(Cc2ccc(OC)cc2)C(=O)CN(Cc2ccc(OC)cc2)C(=O)CN(CCCCN)C(=O)CN(Cc2ccc(OC)cc2)C(=O)CN(Cc2ccc(OC)cc2)C(=O)CN(CCCCN)C(=O)CN(Cc2ccc(OC)cc2)C(=O)CN(Cc2ccc(OC)cc2)C(=O)CNCCCCN)cc1`, for which the EC50 in the data set on Leishmania mexicana [1] was 42 µM; in the data set on Leishmania mexicana [4] it was greater than 100 µM.
On the same counts, the results for `NCCCCCCNCC(=O)N(CC(=O)N(CC(=O)N(CCCCCCN)CC(=O)N(CC(=O)N(CC(N)=O)Cc1ccccc1)Cc1ccccc1)Cc1ccccc1)Cc1ccccc1` (H-[Gly(N-(CH2)6NH2)][Nphe][Nphe][Gly(N-(CH2)6NH2)][Nphe][Nphe]-NH2) are greater than 100 µM and greater than 100 µM.
As to `CCCCCNCC(=O)N(CC(=O)N(CC(=O)N(CCCCN)CC(=O)N(CC(=O)N(CC(=O)N(CCCCN)CC(=O)N(CC(=O)N(CC(=O)N(CCCCN)CC(=O)N(CC(=O)N(CC(N)=O)[C@@H](C)c1ccccc1)[C@@H](C)c1ccccc1)C(C)c1ccccc1)[C@@H](C)c1ccccc1)[C@@H](C)c1ccccc1)[C@@H](C)c1ccccc1)C(C)c1ccccc1)[C@@H](C)c1ccccc1` (single isomer, unassigned), the figures for the EC50 in the data set with Leishmania mexicana [1] and in the data set on Leishmania mexicana [4] were 8 µM and 21 µM, respectively.
Regarding `NCCCCNCC(=O)N(CC(=O)N(CC(=O)N(CCCCN)CC(=O)N(CC(=O)N(CC(N)=O)Cc1ccc(F)cc1)Cc1ccc(F)cc1)Cc1ccc(F)cc1)Cc1ccc(F)cc1` (H-[Nlys][N(4-F-Bzl)Gly][N(4-F-Bzl)Gly][Nlys][N(4-F-Bzl)Gly][N(4-F-Bzl)Gly]-NH2), the EC50 with Leishmania mexicana [1] and in the data set with Leishmania mexicana [4] was greater than 100 µM in each case.
Turning to `COc1ccc(CN(CC(N)=O)C(=O)CN(Cc2ccc(OC)cc2)C(=O)CN(CCCCN)C(=O)CN(Cc2ccc(OC)cc2)C(=O)CN(Cc2ccc(OC)cc2)C(=O)CNCCCCN)cc1`, the EC50 in the data set with Leishmania mexicana [1] and with Leishmania mexicana [4] was greater than 100 µM each time.
For `CC(c1ccccc1)N(CC(=O)N(CCCCN)CC(=O)N(CC(=O)N(CC(=O)N(CCCCN)CC(=O)N(CC(=O)N(CC(N)=O)[C@@H](C)c1ccccc1)Cc1ccc(F)cc1)C(C)c1ccccc1)Cc1ccc(F)cc1)C(=O)CN(Cc1ccc(F)cc1)C(=O)CNCCCCN` (single isomer, unassigned), the EC50 in the data set on Leishmania mexicana [1] was 13 µM; in the data set on Leishmania mexicana [4], greater than 100 µM.
With `C[C@@H](c1ccccc1)N(CC(N)=O)C(=O)CN(C(=O)CN(CCN)C(=O)CN(C(=O)CN(C(=O)CNCCN)[C@@H](C)c1ccccc1)[C@@H](C)c1ccccc1)[C@@H](C)c1ccccc1`, the EC50 with Leishmania mexicana [1] and in the data set on Leishmania mexicana [4] was greater than 100 µM throughout.
Consider `CC(C)CCN(CC(=O)N(CC(N)=O)[C@@H](C)c1ccccc1)C(=O)CN(CCCCN)C(=O)CN(C(=O)CN(CCC(C)C)C(=O)CNCCCCN)[C@@H](C)c1ccccc1` (H-[Nlys][N(isopentyl)Gly][Nspe][Nlys][N(isopentyl)Gly][Nspe]-NH2), for which the EC50 in the data set with Leishmania mexicana [1] and with Leishmania mexicana [4] was greater than 100 µM throughout.
Consider `CC(c1ccccc1)N(CC(=O)N(CCN)CC(=O)N(CC(=O)N(CC(=O)N(CCN)CC(=O)N(CC(=O)N(CC(N)=O)[C@@H](C)c1ccccc1)[C@@H](C)c1ccccc1)C(C)c1ccccc1)[C@@H](C)c1ccccc1)C(=O)CN(C(=O)CNCCN)C(C)c1ccccc1` (single isomer, unassigned), for which the values for the EC50 in the data set on Leishmania mexicana [1] and in the data set on Leishmania mexicana [4] were 10 µM and greater than 100 µM, respectively.
`NCCCCNCC(=O)N(CC(=O)N(CC(=O)N(CCCCN)CC(=O)N(CC(=O)N(CC(N)=O)Cc1ccc(Cl)cc1)Cc1ccc(Cl)cc1)Cc1ccc(Cl)cc1)Cc1ccc(Cl)cc1` (H-[Nlys][Gly(Nα-4-Cl-benzyl)][Gly(Nα-4-Cl-benzyl)][Nlys][Gly(Nα-4-Cl-benzyl)][Gly(Nα-4-Cl-benzyl)]-NH2): the results for the EC50 in the data set with Leishmania mexicana [1] and with Leishmania mexicana [4] were 29 µM and greater than 100 µM, respectively.
For the compound `CC(C)CCN(CC(=O)N(CC(=O)N(CCCCN)CC(=O)N(CCC(C)C)CC(=O)N(CC(=O)N(CCCCN)CC(=O)N(CCC(C)C)CC(=O)N(CC(=O)N(CCCCN)CC(=O)N(CCC(C)C)CC(=O)N(CC(N)=O)[C@@H](C)c1ccccc1)C(C)c1ccccc1)C(C)c1ccccc1)C(C)c1ccccc1)C(=O)CNCCCCN` (single isomer, unassigned), the EC50 in the data set with Leishmania mexicana [1] is 12 µM; with Leishmania mexicana [4], greater than 100 µM.
On to `NCCCCNCC(=O)N(CC(=O)N(CC(=O)N(CCCCN)CC(=O)N(CC(=O)N(CC(=O)N(CCCCN)CC(=O)N(CC(=O)N(CC(=O)N(CCCCN)CC(=O)N(CC(=O)N(CC(N)=O)Cc1ccc(F)cc1)Cc1ccc(F)cc1)Cc1ccc(F)cc1)Cc1ccc(F)cc1)Cc1ccc(F)cc1)Cc1ccc(F)cc1)Cc1ccc(F)cc1)Cc1ccc(F)cc1` (H-[Nlys][N(4-F-Bzl)Gly][N(4-F-Bzl)Gly][Nlys][N(4-F-Bzl)Gly][N(4-F-Bzl)Gly][Nlys][N(4-F-Bzl)Gly][N(4-F-Bzl)Gly][Nlys][N(4-F-Bzl)Gly][N(4-F-Bzl)Gly]-NH2), for which the figures for the EC50 in the data set on Leishmania mexicana [1] and in the data set on Leishmania mexicana [4] were 15 µM and 75 µM, respectively.
As for `NCCCCCCNCC(=O)N(CC(=O)N(CC(=O)N(CCCCCCN)CC(=O)N(CC(=O)N(CC(=O)N(CCCCCCN)CC(=O)N(CC(=O)N(CC(=O)N(CCCCCCN)CC(=O)N(CC(=O)N(CC(N)=O)Cc1ccccc1)Cc1ccccc1)Cc1ccccc1)Cc1ccccc1)Cc1ccccc1)Cc1ccccc1)Cc1ccccc1)Cc1ccccc1` (H-[Gly(N-(CH2)6NH2)][Nphe][Nphe][Gly(N-(CH2)6NH2)][Nphe][Nphe][Gly(N-(CH2)6NH2)][Nphe][Nphe][Gly(N-(CH2)6NH2)][Nphe][Nphe]-NH2), the EC50 in the data set with Leishmania mexicana [1] is 21 µM; in the data set on Leishmania mexicana [4] it was greater than 100 µM.
`NCCCCNCC(=O)N(CC(=O)N(CC(=O)N(CCCCN)CC(=O)N(CC(=O)N(CC(N)=O)Cc1ccccc1)Cc1ccccc1)Cc1ccccc1)Cc1ccccc1` (H-[Nlys][Nphe][Nphe][Nlys][Nphe][Nphe]-NH2): the EC50 with Leishmania mexicana [1] and with Leishmania mexicana [4] was greater than 100 µM in each case.
Regarding `CC(C)CN(CC(=O)N(CC(N)=O)[C@@H](C)c1ccccc1)C(=O)CN(CCCCN)C(=O)CN(C(=O)CN(CC(C)C)C(=O)CN(CCCCN)C(=O)CN(C(=O)CN(CC(C)C)C(=O)CN(CCCCN)C(=O)CN(C(=O)CN(CC(C)C)C(=O)CNCCCCN)[C@@H](C)c1ccccc1)[C@@H](C)c1ccccc1)[C@@H](C)c1ccccc1` (H-[Nlys][Nleu][Nspe][Nlys][Nleu][Nspe][Nlys][Nleu][Nspe][Nlys][Nleu][Nspe]-NH2), the EC50 in the data set with Leishmania mexicana [1] and with Leishmania mexicana [4] was greater than 100 µM each time.
Consider `NCCNCC(=O)N(CC(=O)N(CC(=O)N(CCN)CC(=O)N(CC(=O)N(CC(=O)N(CCN)CC(=O)N(CC(=O)N(CC(N)=O)Cc1ccccc1)Cc1ccccc1)Cc1ccccc1)Cc1ccccc1)Cc1ccccc1)Cc1ccccc1` (H-[Gly(N-2-aminoethyl)][Nphe][Nphe][Gly(N-2-aminoethyl)][Nphe][Nphe][Gly(N-2-aminoethyl)][Nphe][Nphe]-NH2), for which the EC50 in the data set on Leishmania mexicana [1] and in the data set with Leishmania mexicana [4] was greater than 100 µM throughout.
On to `CCCCCNCC(=O)N(CC(=O)N(CC(=O)N(CCCCN)CC(=O)N(CC(=O)N(CC(=O)N(CCCCC)CC(=O)N(CC(=O)N(CC(=O)N(CCCCN)CC(=O)N(CC(=O)N(CC(N)=O)[C@@H](C)c1ccccc1)[C@@H](C)c1ccccc1)C(C)c1ccccc1)[C@@H](C)c1ccccc1)C(C)c1ccccc1)[C@@H](C)c1ccccc1)C(C)c1ccccc1)[C@@H](C)c1ccccc1` (single isomer, unassigned), for which the EC50 in the data set with Leishmania mexicana [1] amounted to 10 µM; with Leishmania mexicana [4] it was 17 µM.
For `NCCCCCCNCC(=O)N(CC(=O)N(CC(=O)N(CCCCCCN)CC(=O)N(CC(=O)N(CC(=O)N(CCCCCCN)CC(=O)N(CC(=O)N(CC(N)=O)Cc1ccccc1)Cc1ccccc1)Cc1ccccc1)Cc1ccccc1)Cc1ccccc1)Cc1ccccc1` (H-[Gly(N-(CH2)6NH2)][Nphe][Nphe][Gly(N-(CH2)6NH2)][Nphe][Nphe][Gly(N-(CH2)6NH2)][Nphe][Nphe]-NH2), the EC50 with Leishmania mexicana [1] and in the data set with Leishmania mexicana [4] was greater than 100 µM each time.
In the case of `CCCN(CC(=O)N(CC(N)=O)[C@@H](C)c1ccccc1)C(=O)CN(CCCCN)C(=O)CN(C(=O)CN(CCC)C(=O)CN(CCCCN)C(=O)CN(C(=O)CN(CCC)C(=O)CN(CCCCN)C(=O)CN(C(=O)CN(CCC)C(=O)CNCCCCN)[C@@H](C)c1ccccc1)[C@@H](C)c1ccccc1)[C@@H](C)c1ccccc1` (H-[Nlys][NPrGly][Nspe][Nlys][NPrGly][Nspe][Nlys][NPrGly][Nspe][Nlys][NPrGly][Nspe]-NH2), the EC50 in the data set on Leishmania mexicana [1] and in the data set with Leishmania mexicana [4] was greater than 100 µM throughout.
As for `CC(c1ccccc1)N(CC(=O)N(CCCCN)CC(=O)N(CC(=O)N(CC(=O)N(CCCCN)CC(=O)N(CC(=O)N(CC(N)=O)[C@@H](C)c1ccccc1)[C@@H](C)c1ccccc1)Cc1ccc(F)cc1)Cc1ccc(F)cc1)C(=O)CN(C(=O)CNCCCCN)[C@@H](C)c1ccccc1` (single isomer, unassigned), the EC50 was 13 µM in the data set with Leishmania mexicana [1] and greater than 100 µM with Leishmania mexicana [4].
With `NCCCCNCC(=O)N(CC(=O)N(CC(=O)N(CCCCN)CC(=O)N(CC(=O)N(CC(=O)N(CCCCN)CC(=O)N(CC(=O)N(CC(N)=O)Cc1ccccc1)Cc1ccccc1)Cc1ccccc1)Cc1ccccc1)Cc1ccccc1)Cc1ccccc1`, the EC50 in the data set on Leishmania mexicana [1] and in the data set on Leishmania mexicana [4] was greater than 100 µM throughout.
